36 compounds from ChEMBL document CHEMBL5576122, “Discovery of Novel Azaphenothiazine Derivatives to Suppress Endometrial Cancer by Targeting GRP75 to Impair Its Interaction with IP3R and Mitochondrial Ca2+ Homeostasis” (J Med Chem, 2024) can be followed below.

The subject of series [1] is Ishikawa. The experiment in a line: Inhibition of cell proliferation in human Ishikawa cells incubated for 48 hrs by CCK-8 assay.
Series [2] concerns KLE. Briefly: Inhibition of cell proliferation in human KLE cells incubated for 48 hrs by CCK-8 assay. Background: Tetrazolium dyes change colour on reduction, which living cells bring about.
Series [3] is described as follows: in vitro. The note with it: mouse, liver microsomes.
Description: Metabolic stability in mouse liver microsomes assessed as half life
The nature of series [4]: in vitro. The note with it: plasma.
Description: Protein binding in plasma (unknown origin)
Series [5] can be described thus: in vitro. The note with it: human, liver microsomes. A general note: Liver microsomes are a subcellular fraction often used to study metabolism.
Series [6] in a line: in vitro. To be noted: mouse, liver microsomes. The source holds these as a separate data set.
Series [7] in a line: in vitro. To be noted: human, liver microsomes. This is another data set of the same source.
Series [8] deals with CYP2C19 (Homo sapiens, UniProt P33261). The experiment in a line: Inhibition of CYP2C19 (unknown origin) at 10 uM relative to control. In kind it is ADME.
The target of series [9] is CYP2C9 (Homo sapiens, UniProt P11712). The experiment in a line: Inhibition of CYP2C9 (unknown origin) at 10 uM relative to control. Type of series: ADME.
The target of series [10] is CYP2D6 (Homo sapiens, UniProt P10635). The experiment in a line: Inhibition of CYP2D6 (unknown origin) at 10 uM relative to control. Type of series: ADME.
In series [11] the target is T1, CYP1A2 (Homo sapiens, UniProt P05177).
T1 sequence (P05177 whole entry): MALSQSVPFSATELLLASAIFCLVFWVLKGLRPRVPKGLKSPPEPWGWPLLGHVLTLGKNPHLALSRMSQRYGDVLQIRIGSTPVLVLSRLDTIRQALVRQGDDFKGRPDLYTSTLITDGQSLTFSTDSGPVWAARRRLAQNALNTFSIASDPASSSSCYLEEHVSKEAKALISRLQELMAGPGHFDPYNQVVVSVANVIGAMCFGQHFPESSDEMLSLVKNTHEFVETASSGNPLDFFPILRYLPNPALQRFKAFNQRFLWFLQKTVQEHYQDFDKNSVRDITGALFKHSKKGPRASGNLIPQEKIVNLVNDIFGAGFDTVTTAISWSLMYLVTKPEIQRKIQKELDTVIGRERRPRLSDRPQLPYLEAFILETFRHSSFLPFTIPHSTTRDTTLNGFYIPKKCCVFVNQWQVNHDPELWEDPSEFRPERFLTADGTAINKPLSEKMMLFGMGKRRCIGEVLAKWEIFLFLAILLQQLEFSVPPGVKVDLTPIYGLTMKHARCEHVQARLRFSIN
The experiment in a line: Inhibition of CYP1A2 (unknown origin) at 10 uM relative to control. In kind it is ADME.

The target of series [12] is CYP3A4 (Homo sapiens, UniProt P08684). The experiment in a line: Inhibition of CYP3A4 (unknown origin) at 10 uM relative to control. In kind it is ADME.
Sequence of CYP3A4 (P08684 whole entry): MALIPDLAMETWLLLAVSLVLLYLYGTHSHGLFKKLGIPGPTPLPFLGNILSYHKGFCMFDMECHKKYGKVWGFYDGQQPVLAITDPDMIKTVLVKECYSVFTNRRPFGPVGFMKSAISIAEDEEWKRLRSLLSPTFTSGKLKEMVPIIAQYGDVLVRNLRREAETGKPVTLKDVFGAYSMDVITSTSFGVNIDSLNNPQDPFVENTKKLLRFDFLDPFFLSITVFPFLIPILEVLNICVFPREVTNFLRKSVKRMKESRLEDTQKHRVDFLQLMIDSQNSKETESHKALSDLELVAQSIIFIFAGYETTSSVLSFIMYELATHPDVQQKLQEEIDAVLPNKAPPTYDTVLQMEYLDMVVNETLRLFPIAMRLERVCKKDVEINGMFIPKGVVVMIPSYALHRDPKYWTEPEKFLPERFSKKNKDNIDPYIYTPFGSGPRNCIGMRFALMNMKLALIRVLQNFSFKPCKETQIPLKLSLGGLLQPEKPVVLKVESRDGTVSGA

Sequence of CYP2D6 (P10635 whole entry): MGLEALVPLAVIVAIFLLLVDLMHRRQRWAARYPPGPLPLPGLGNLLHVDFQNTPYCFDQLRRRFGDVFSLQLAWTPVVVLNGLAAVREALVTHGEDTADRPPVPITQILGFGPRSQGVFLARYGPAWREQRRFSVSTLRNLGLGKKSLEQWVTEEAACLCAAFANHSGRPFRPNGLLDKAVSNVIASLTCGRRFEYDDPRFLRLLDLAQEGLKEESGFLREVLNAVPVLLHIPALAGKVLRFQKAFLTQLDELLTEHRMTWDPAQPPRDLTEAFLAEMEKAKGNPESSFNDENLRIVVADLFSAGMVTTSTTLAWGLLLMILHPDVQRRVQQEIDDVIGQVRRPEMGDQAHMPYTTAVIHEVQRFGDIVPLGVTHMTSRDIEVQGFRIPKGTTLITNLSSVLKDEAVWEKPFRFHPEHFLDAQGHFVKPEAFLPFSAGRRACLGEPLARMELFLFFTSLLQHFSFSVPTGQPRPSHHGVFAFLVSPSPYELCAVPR
Sequence of CYP2C9 (P11712 whole entry): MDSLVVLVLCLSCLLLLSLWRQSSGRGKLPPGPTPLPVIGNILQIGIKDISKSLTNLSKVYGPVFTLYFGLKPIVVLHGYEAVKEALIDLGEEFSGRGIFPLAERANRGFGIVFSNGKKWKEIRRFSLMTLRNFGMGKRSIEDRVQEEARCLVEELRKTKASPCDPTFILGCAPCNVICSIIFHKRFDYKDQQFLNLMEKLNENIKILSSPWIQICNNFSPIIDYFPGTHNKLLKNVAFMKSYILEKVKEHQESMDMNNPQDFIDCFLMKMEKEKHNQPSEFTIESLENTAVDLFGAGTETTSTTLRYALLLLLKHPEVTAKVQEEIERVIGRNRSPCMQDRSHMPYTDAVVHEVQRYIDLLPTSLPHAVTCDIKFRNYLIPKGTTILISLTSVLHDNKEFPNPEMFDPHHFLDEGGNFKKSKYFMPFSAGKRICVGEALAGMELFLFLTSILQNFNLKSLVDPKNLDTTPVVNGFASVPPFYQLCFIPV
Sequence of CYP2C19 (P33261 whole entry): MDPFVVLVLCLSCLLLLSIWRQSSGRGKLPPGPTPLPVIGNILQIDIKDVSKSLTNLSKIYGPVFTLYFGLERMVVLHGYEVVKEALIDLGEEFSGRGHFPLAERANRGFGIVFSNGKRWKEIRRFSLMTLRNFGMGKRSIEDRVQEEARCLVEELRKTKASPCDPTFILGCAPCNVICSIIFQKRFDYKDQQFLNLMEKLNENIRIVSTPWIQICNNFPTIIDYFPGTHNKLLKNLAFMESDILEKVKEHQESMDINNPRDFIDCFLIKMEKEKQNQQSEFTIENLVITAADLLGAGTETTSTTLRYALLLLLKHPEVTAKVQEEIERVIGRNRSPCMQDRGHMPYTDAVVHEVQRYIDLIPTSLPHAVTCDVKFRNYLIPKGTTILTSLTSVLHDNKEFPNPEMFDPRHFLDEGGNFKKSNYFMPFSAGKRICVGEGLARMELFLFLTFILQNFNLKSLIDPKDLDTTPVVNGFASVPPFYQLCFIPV

One may read the IC50 as the midpoint of a concentration-inhibition curve. High values mean lower potency, low ones higher potency. Turning to `CC(C)(C)OC(=O)N1CCC2(CCN(CCCCCN3c4ccccc4Sc4cccnc43)CC2)CC1`, the results for the IC50 in series [1] and in [2] were 6 µM and 9.99 µM, respectively.

Turning to `Clc1ccc2c(c1)N(CCCCCN1CCC3(CC1)CCN(Cc1ccccc1)CC3)c1ncccc1S2`, the values for the IC50 in [1] and in [2] were 2.4 µM and 3.96 µM, respectively.

For the compound `CN1CCC2(CC1)CCN(CCCCCN1c3cc(Cl)ccc3Sc3cccnc31)CC2`, the IC50 was 1.21 µM in series [1] and 3.17 µM in series [2].

`CC(C)(C)OC(=O)N1CCC2(CCCN(CCCCCN3c4cc(Cl)ccc4Sc4cccnc43)C2)CC1` registered an IC50 in series [1] of 47.5 µM.

Consider `CC(C)(C)OC(=O)N1CCC2(CN(CCCCCN3c4cc(Cl)ccc4Sc4cccnc43)C2)C1`, for which, in [1], the IC50 came to 12.7 µM. This IC50 lies about 3.7-fold lower than the previous one.

`CC(C)(C)OC(=O)N1CCC2(CCN(CCCCCN3c4cc(C(F)(F)F)ccc4Sc4cccnc43)CC2)CC1`: the half-inhibitory concentration (IC50) came to 6.75 µM in series [1] and 14.5 µM in series [2].

Turning to `CC(C)(C)OC(=O)N1CCC2(CCN(CCCCCN3c4cc(Cl)ccc4Sc4cccnc43)CC2)C1`, the IC50 was 735 µM in series [1] and 10.7 µM in [2].

In the case of `O=C1CC2(CCN(CCCCCN3c4cc(Cl)ccc4Sc4cccnc43)CC2)C(=O)N1`, the IC50 in series [1] worked out at 14.5 µM.

In the case of `CC(C)(C)OC(=O)N1CC2(CCN(CCCCCN3c4cc(Cl)ccc4Sc4cccnc43)C2)C1`, in series [1], it took 14.4 µM to reach half-maximal inhibition (IC50).

The compound `O=C1CC2(CCN(Cc3ccccc3)CC2)CC(=O)N1CCCCCN1c2cc(Cl)ccc2Sc2cccnc21` gave an IC50 in [1] of 27.5 µM.

The compound `CC(C)(C)OC(=O)N1CC2(CCN(CCCCCN3c4cc(Cl)ccc4Sc4cccnc43)CC2)C1` gave an IC50 in series [1] of 11.4 µM.

Consider `CC(C)(C)OC(=O)N1CCC2(CCN(CCCCCN3c4cc(Cl)ccc4Sc4cccnc43)C2)C1` (centres undefined), for which the half-maximal inhibitory concentration (IC50) in series [1] is 10.9 µM. The IC50 values of the last two compounds are within 1.5-fold of each other.

As to `Clc1ccc2c(c1)N(CCCCCN1CCC3(CCNCC3)CC1)c1ncccc1S2`, the results for the IC50 in series [1] and in series [2] were 1.7 µM and 2.88 µM, respectively.

`CC(C)(C)OC(=O)N1CCC2(CCN(CCCCCCN3c4cc(Cl)ccc4Sc4cccnc43)CC2)CC1` showed an IC50 in series [1] of 13.3 µM.

As for `CC(C)(C)OC(=O)N1C2CC1CN(CCCCCN1c3cc(Cl)ccc3Sc3cccnc31)C2`, the 50% inhibitory concentration (IC50) in series [1] stood at 53.4 µM.

In the case of `CC(C)(C)OC(=O)N1CCCC12CCN(CCCCCN1c3cc(Cl)ccc3Sc3cccnc31)CC2`, the values for the IC50 in series [1] and in series [2] were 7.4 µM and 8.52 µM, respectively.

As to `C#CCN1CCC2(CC1)CCN(CCCCCN1c3cc(Cl)ccc3Sc3cccnc31)CC2`, the figures for the IC50 in series [1] and in series [2] were 4.58 µM and 8.31 µM, respectively.

`CN1CCC2(CC1)CCN(CCCCCN1c3cc(OCc4ccccc4)ccc3Sc3cccnc31)CC2` registered an IC50 in series [1] of 14.6 µM.

`CC(C)(C)OC(=O)N1CC2CC1CN2CCCCCN1c2cc(Cl)ccc2Sc2cccnc21` (centres undefined): the IC50 in series [1] worked out at 21.3 µM.

As to `CCCN1CCC2(CC1)CCN(CCCCCN1c3cc(Cl)ccc3Sc3cccnc31)CC2`, the IC50 in series [1] turned out to be 1.41 µM; in [2], 3.53 µM.

As a reminder, the half-life is how long it takes for the measured level to halve. The fraction unbound is free concentration divided by total concentration. A higher fraction unbound goes with much free substance. One may read the CLint scaled as the capacity of the preparation to metabolise the compound, expressed as a volume cleared per time. With `CN(C)CCCN1c2ccccc2Sc2ccc(Cl)cc21.Cl` [CHLORPROMAZINE HYDROCHLORIDE], the IC50 in [1] turned out to be 22 µM; in [2], 35 µM. In addition, the half-life in series [3] came to 7.6 min; in [5], 23.8 min. The same compound gave a fraction unbound in series [4] of 0.0156. The CLint scaled in series [6] worked out at 724 mL/min/kg; in series [7], 52.3 mL/min/kg.

Consider `CC(C)(C)OC(=O)N1CCC2(CCN(CCCCCN3c4cc(Cl)ccc4Sc4cccnc43)CC2)CC1`, for which the IC50 is 5.37 µM in series [1] and 9.55 µM in series [2].

In series [1], `Clc1ccc2c(c1)N(CCCCCN1CCC3(CC1)CCN(Cc1ccccn1)CC3)c1ncccc1S2` showed an IC50 of 12.8 µM. In other words, the double-digit micromolar range.

Compound `CC(C)(C)OC(=O)N1CCC2(CCN(CCCCN3c4cc(Cl)ccc4Sc4cccnc43)CC2)CC1` gave a half-maximal inhibitory concentration (IC50) in series [1] of 11.1 µM.

A word on the inhibition: it is the share of the control response that was lost under treatment. Read a low inhibition as little suppression. On to `COc1ccc2c(c1)N(CCCCCN1CCC3(CCN(C)CC3)CC1)c1ncccc1S2`, for which the inhibition at 10 µM was 7.5% in [8]; 7% in series [9]; 14.8% in series [10]; 0% in series [11]; 20% in [12].

Take `CC(C)(C)OC(=O)N1C[C@]2(C)C[C@@]1(C)CN2CCCCCN1c2cc(Cl)ccc2Sc2cccnc21`: the IC50 in series [1] was determined as 18.7 µM. That is a double-digit micromolar value.

Consider `CC(C)(C)OC(=O)N1CCC2(CC1)CN(CCCCCN1c3cc(Cl)ccc3Sc3cccnc31)CCO2`, for which it took 45.4 µM to reach half-maximal inhibition in series [1] (IC50).

Compound `CC(=O)N1CCC2(CCN(CCCCCN3c4cc(Cl)ccc4Sc4cccnc43)CC2)CC1` gave an IC50 in [1] of 10.4 µM.

Take `CC(C)(C)OC(=O)N1CCC2(CCN(CCCCCN3c4cc(Cl)ccc4Sc4cccnc43)C2)CC1`: in series [1], the IC50 was found to be 11.6 µM. This IC50 and that of the compound before are within 1.5-fold of each other.

Take `CC(C)(C)OC(=O)N1CCC2(CC1)CCN2CCCCCN1c2cc(Cl)ccc2Sc2cccnc21`: the results for the IC50 in [1] and in series [2] were 6.13 µM and 6.23 µM, respectively.

With `Clc1ccc(CN2CCC3(CCN(CCCCCN4c5cc(Cl)ccc5Sc5cccnc54)CC3)CC2)cc1`, the concentration for half-maximal inhibition (IC50) in [1] was 2.57 µM; in series [2] it was 3.49 µM.

Consider `CC(C)(C)OC(=O)N1CCC2(CC1)CN(CCCCCN1c3cc(Cl)ccc3Sc3cccnc31)C2`, for which the IC50 in series [1] came to 8.23 µM.

In [1], `CC(C)(C)OC(=O)N1CCC2(CCCN2CCCCCN2c3cc(Cl)ccc3Sc3cccnc32)CC1` returned an IC50 of 13.3 µM.

As to `CCN(CC)c1ccc2c(c1)N(CCCCCN1CCC3(CCN(C)CC3)CC1)c1ncccc1S2`, in series [1], inhibition was half-maximal at 17.5 µM (IC50).

For the compound `CC(C)(C)OC(=O)N1CC2(CN(CCCCCN3c4cc(Cl)ccc4Sc4cccnc43)C2)C1`, half-maximal inhibition in series [1] (IC50) required 12.2 µM.

For the compound `COc1ccc2c(c1)N(CCCCCN1CCC3(CC1)CCN(C(=O)OC(C)(C)C)CC3)c1ncccc1S2`, the IC50 was found to be 3.95 µM in series [1] and 8.06 µM in series [2].
